Assay results taken from patent US8623859B2, “Bradykinin B1 antagonists” (Evotec AG, priority 2008, dated 2014).
Structures can show the parent of a compound that is named as a salt.

Molecular target: T1, human B1 (Homo sapiens, UniProt P46663)
T1 construct: host or cells: CHO-K1
T1 sequence (P46663 1-353): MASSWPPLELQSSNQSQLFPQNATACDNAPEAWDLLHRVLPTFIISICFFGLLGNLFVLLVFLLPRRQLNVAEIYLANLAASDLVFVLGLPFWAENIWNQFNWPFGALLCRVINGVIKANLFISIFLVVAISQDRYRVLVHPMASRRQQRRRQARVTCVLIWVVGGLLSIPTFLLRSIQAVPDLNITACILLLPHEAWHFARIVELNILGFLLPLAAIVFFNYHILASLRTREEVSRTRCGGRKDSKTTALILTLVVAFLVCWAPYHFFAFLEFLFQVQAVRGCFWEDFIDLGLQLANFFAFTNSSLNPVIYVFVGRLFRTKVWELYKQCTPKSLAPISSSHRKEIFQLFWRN
Test: Calcium flux assay for Bradykinin B1 antagonist, CHO-K1 cell line expressing human B1
Assay type: cell-based
Details: CHO-K1 cells expressing human B1, agonist Lys-(Des-Arg)-Bradykinin, read-out: Potency (IC50 value against human B1)
Procedure, shortened: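 Inhibition of B1 agonist-evoked intracellular Ca2+ rise was followed by continuous fluorescence at 538 nm, with integrated, background-normalized signals plotted versus log compound concentration. Test compounds (eight 10-fold dilutions, triplicate, 1% DMSO final) were added 30 min at 25° C beforehand to Fluo-4AM-loaded human B1 CHO-K1 cells in pH 7.4 assay buffer.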

Row | Compound | IC50 [nM]
1 | COc1cc(C)c(S(=O)(=O)N(Cc2noc(C(=O)N3CCN(CCCN(C)C)CC3)n2)C2CC2)c(C)c1 [Ex 316, N-Cyclopropyl-N-{[5-([4-[3-(dimethylamino)propyl]piperazin-1-yl]carbonyl)-1,2,4-oxadiazol-3-yl]methyl}-4-methoxy-2,6-dimethylbenzenesulfonamide] | 10 to 100
2 | COc1cc(C)c(S(=O)(=O)N(Cc2nc(C(=O)N3CCC(O)(CN4CCOCC4)CC3)co2)C2CC2)c(C)c1 [Ex 224, N-Cyclopropyl-N-[(4-{[4-hydroxy-4-(morpholin-4-ylmethyl)piperidin-1-yl]carbonyl}-1,3-oxazol-2-yl)methyl]-4-methoxy-2,6-dimethylbenzenesulfonamide trifluoroacetate] | 10 to 100
3 | COc1cc(C)c(S(=O)(=O)N(C)Cc2cc(C(=O)NCc3ccc(Nc4nccc(N)n4)cc3)co2)c(C)c1 [Ex 14, N-{4-[(4-aminopyrimidin-2-yl)amino]benzyl}-5-({[(4-methoxy-2,6-dimethylphenyl)sulfonyl](methyl)amino}methyl)furan-3-carboxamide] | 100 to 1000
4 | COc1cc(C)c(S(=O)(=O)N(Cc2noc(C(=O)N3CCC(CCN4CCCC4)CC3)n2)C2CC2)c(C)c1 [Ex 312, N-Cyclopropyl-4-methoxy-2,6-dimethyl-N-[(5-{[4-(2-pyrrolidin-1-ylethyl)piperidin-1-yl]carbonyl}-1,2,4-oxadiazol-3-yl)methyl]benzenesulfonamide] | < 10
5 | COc1cc(C)c(S(=O)(=O)N(Cc2nc(C(=O)N3CCN(C4CCN(C)CC4)CC3)co2)C2CC2)c(C)c1 [Ex 165, N-Cyclopropyl-4-methoxy-2,6-dimethyl-N-[(4-{[4-(1-methylpiperidin-4-yl)piperazin-1-yl]carbonyl}-1,3-oxazol-2-yl)methyl]benzenesulfonamide] | < 10
6 | COc1cc(C)c(S(=O)(=O)N(Cc2nc(C(=O)N(C)Cc3ccc(CN4CCCC(OC)C4)cc3)co2)C2CC2)c(C)c1 (stereo not shown) [Ex 184, 2-({Cyclopropyl[(4-methoxy-2,6-dimethylphenyl)sulfonyl]amino}methyl)-N-{4-[(3-methoxypiperidin-1-yl)methyl]benzyl}-N-methyl-1,3-oxazole-4-carboxamide] | < 10
7 | COc1cc(C)c(S(=O)(=O)N(Cc2nc(C(=O)N3CCN(Cc4c(Cl)cncc4Cl)CC3)co2)C2CC2)c(C)c1 [Ex 233, N-Cyclopropyl-N-{[4-({4-[(3,5-dichloropyridin-4-yl)methyl]piperazin-1-yl}carbonyl)-1,3-oxazol-2-yl]methyl}-4-methoxy-2,6-dimethylbenzenesulfonamide trifluoroacetate] | 10 to 100
8 | COc1cc(C)c(S(=O)(=O)N(Cc2nc(C(=O)N3CCN(Cc4c[nH]cn4)CC3)co2)C2CC2)c(C)c1 [Ex 249, N-Cyclopropyl-N-[(4-{[4-(1H-imidazol-4-ylmethyl)piperazin-1-yl]carbonyl}-1,3-oxazol-2-yl)methyl]-4-methoxy-2,6-dimethylbenzenesulfonamide] | 10 to 100
9 | COc1cc(C)c(S(=O)(=O)N(Cc2nc(C(=O)N3CCN(Cc4ccccn4)CC3)co2)C2CC2)c(C)c1 [Ex 227, N-Cyclopropyl-4-methoxy-2,6-dimethyl-N-[(4-{[4-(pyridin-2-ylmethyl)piperazin-1-yl]carbonyl}-1,3-oxazol-2-yl)methyl]benzenesulfonamide trifluoroacetate] | 100 to 1000
10 | COc1cc(C)c(S(=O)(=O)N(C)Cc2nc(C(=O)N(C)Cc3nnc(CN4CCCC4)s3)co2)c(C)c1 [Ex 201, 2-({[(4-Methoxy-2,6-dimethylphenyl)sulfonyl](methyl)amino}methyl)-N-methyl-N-{[5-(pyrrolidin-1-ylmethyl)-1,3,4-thiadiazol-2-yl]methyl}-1,3-oxazole-4-carboxamide trifluoroacetate] | 100 to 1000
11 | CN(CCc1ccc(C2=NCCN2)cc1)C(=O)c1coc(CN(C2CC2)S(=O)(=O)c2ccccc2C(F)(F)F)n1 [Ex 221, 2-[(Cyclopropyl{[2-(trifluoromethyl)phenyl]sulfonyl}amino)methyl]-N-{2-[4-(4,5-dihydro-1H-imidazol-2-yl)phenyl]ethyl}-N-methyl-1,3-oxazole-4-carboxamide trifluoroacetate] | 100 to 1000
12 | COc1cc(C)c(S(=O)(=O)N(Cc2cc(C(=O)N(C)Cc3ccc(C4=NCCN4)cc3)co2)c2ccccc2)c(C)c1 [Ex 50, N-[4-(4,5-dihydro-1H-imidazol-2-yl)benzyl]-5-({[(4-methoxy-2,6-dimethylphenyl)sulfonyl] (phenyl)amino}methyl)-N-methylfuran-3-carboxamide] | 100 to 1000
13 | CCN(Cc1cc(C(=O)NCCc2ccc(C3=NCCN3)cc2)co1)S(=O)(=O)c1c(C)cc(OC)cc1C [Ex 104, N-{2-[4-(4,5-Dihydro-1H-imidazol-2-yl)phenyl]ethyl}-5-({ethyl[(4-methoxy-2,6-dimethylphenyl)sulfonyl]amino}methyl)furan-3-carboxamide trifluoroacetate] | 10 to 100
14 | COc1cc(C)c(S(=O)(=O)N(Cc2nc(C(=O)N3CC4CCN(Cc5ccc(N6CCCC6)nc5)CC4C3)co2)C2CC2)c(C)c1 (stereo not shown) [Ex 211, N-Cyclopropyl-4-methoxy-2,6-dimethyl-N-{[4-({5-[(6-pyrrolidin-1-ylpyridin-3-yl)methyl]octahydro-2H-pyrrolo[3,4-c]pyridin-2-yl}carbonyl)-1,3-oxazol-2-yl]methyl}benzenesulfonamide trifluoroacetate] | < 10
15 | COc1cc(C)c(S(=O)(=O)N(C)Cc2nnc(C(=O)N(C)CCc3ccc(C4=NCCN4)cc3)o2)c(C)c1 [Ex 267, N-{2-[4-(4,5-Dihydro-1H-imidazol-2-yl)phenyl]ethyl}-5-({[(4-methoxy-2,6-dimethylphenyl)sulfonyl](methyl)amino}methyl)-N-methyl-1,3,4-oxadiazole-2-carboxamide] | < 10
16 | COc1cc(C)c(S(=O)(=O)N(C)Cc2nc(C(=O)N(C)Cc3ccc(C4=NCCN4)cc3)co2)c(C)c1 [Ex 70, N-[4-(4,5-dihydro-1H-imidazol-2-yl)benzyl]-2-({[(4-methoxy-2,6-dimethylphenyl)sulfonyl](methyl)amino}methyl)-N-methyl-1,3-oxazole-4-carboxamide] | < 10
17 | COc1cc(C)c(S(=O)(=O)N(Cc2nc(C(=O)N3CCN(c4cccnc4)CC3)co2)C2CC2)c(C)c1 [Ex 226, N-Cyclopropyl-4-methoxy-2,6-dimethyl-N-({4-[(4-pyridin-3-ylpiperazin-1-yl)carbonyl]-1,3-oxazol-2-yl}methyl)benzenesulfonamide] | 100 to 1000

Next, values leading:

Row | IC50 [nM] | Compound
18 | < 10 | CN(Cc1ccc(C2=NCCN2)cc1)C(=O)c1coc(CN(C)S(=O)(=O)c2c(Cl)cc(Br)cc2Cl)c1 [Ex 19, 5-({[(4-bromo-2,6-dichlorophenyl)sulfonyl](methyl)amino}methyl)-N-[4-(4,5-dihydro-1H-imidazol-2-yl)benzyl]-N-methylfuran-3-carboxamide]
19 | 10 to 100 | COc1cc(C)c(S(=O)(=O)N(Cc2cc(C(=O)N(C)Cc3ccc(CN4CCCC4)cc3)co2)C2CC2)c(C)c1 [Ex 57, 5-({Cyclopropyl[(4-methoxy-2,6-dimethylphenyl)sulfonyl]amino}methyl)-N-methyl-N-[4-(pyrrolidin-1-ylmethyl)benzyl]furan-3-carboxamide]
20 | 100 to 1000 | Cc1cccc(Cl)c1S(=O)(=O)N(Cc1nc(C(=O)N(C)Cc2ccc(CN3CCCC3)cc2)co1)C1CC1 [Ex 220, 2-({[(2-Chloro-6-methylphenyl)sulfonyl](cyclopropyl)amino}methyl)-N-methyl-N-[4-(pyrrolidin-1-ylmethyl)benzyl]-1,3-oxazole-4-carboxamide trifluoroacetate]
21 | < 10 | COc1cc(C)c(S(=O)(=O)N(C)Cc2nc(C(=O)N(C)Cc3ccc(CN4CCC(O)C4)cc3)co2)c(C)c1 (stereo not shown) [Ex 178, N-{4-[(3-Hydroxypyrrolidin-1-yl)methyl]benzyl}-2-({[(4-methoxy-2,6-dimethylphenyl)sulfonyl](methyl)amino}methyl)-N-methyl-1,3-oxazole-4-carboxamide]
22 | 100 to 1000 | CN(Cc1ccc(CN2CCCC2)cc1)C(=O)c1coc(CN(C2CC2)S(=O)(=O)c2ccccc2C(F)(F)F)n1 [Ex 222, 2-[(Cyclopropyl{[2-(trifluoromethyl)phenyl]sulfonyl}amino)methyl]-N-methyl-N-[4-(pyrrolidin-1-ylmethyl)benzyl]-1,3-oxazole-4-carboxamide trifluoroacetate]
23 | 100 to 1000 | CCN(Cc1cc(C(=O)N(C)Cc2ccc(CN3CCCC3)cc2)co1)S(=O)(=O)c1c(Cl)cccc1Cl [Ex 121, 5-({[(2,6-Dichlorophenyl)sulfonyl](ethyl)amino}methyl)-N-methyl-N-[4-(pyrrolidin-1-ylmethyl)benzyl]furan-3-carboxamide trifluoroacetate]
24 | < 10 | CN(CCc1ccc(C2=NCCN2)cc1)C(=O)c1coc(CN(C2CC2)S(=O)(=O)c2c(Cl)cc(Br)cc2Cl)c1 [Ex 124, 5-({[(4-Bromo-2,6-dichlorophenyl)sulfonyl](cyclopropyl)amino}methyl)-N-{2-[4-(4,5-dihydro-1H-imidazol-2-yl)phenyl]ethyl}-N-methylfuran-3-carboxamide trifluoroacetate]
25 | < 10 | COc1cc(C)c(S(=O)(=O)N(Cc2nnc(C(=O)N(C)Cc3ccc(CN4CCCC4)cc3)o2)C2CC2)c(C)c1 [Ex 281, 5-({Cyclopropyl[(4-methoxy-2,6-dimethylphenyl)sulfonyl]amino}methyl)-N-methyl-N-[4-(pyrrolidin-1-ylmethyl)benzyl]-1,3,4-oxadiazole-2-carboxamide]
